Values of other authors as cited in patent US20120058205A1, “COMPOSITIONS AND TREATMENT REGIMES FOR REDUCING INFLAMMATION, END-ORGAN INJURY, AND/OR SYSTEMIC ENDOTOXEMIA” (priority 2009, published 2012).

Experiments:
aldosterone = conditions: administration to diabetic patients
[1] = animal model; also printed as ≦1,000 nmol/L
[2] = consistently above; also printed as 500 nmol/L; possible hypercalcemia and hyperphosphatemia

## CC(=O)S[C@@H]1CC2=CC(=O)CC[C@]2(C)[C@H]2CC[C@@]3(C)[C@@H](CC[C@@]34CCC(=O)O4)[C@H]12 [spironolactone]
aldosterone
  increase of aldosterone levels: ≥ 400%

## C=C1/C(=C\C=C2/CCC[C@]3(C)[C@@H]([C@H](C)CCCC(C)(C)O)CC[C@@H]23)C[C@@H](O)C[C@@H]1O [1,25(OH)2D, 1,25-dihydroxyvitamin D]
circulating
  half-life: 15 h

## C=C1CC[C@H](O)C/C1=C/C=C1\CCC[C@]2(C)[C@@H]([C@H](C)CCCC(C)(C)O)CC[C@@H]12 [25(OH)D, 25-hydroxyvitamin D]
[1]
  concentrations that demonstrated no toxicity: ≤ 400 ng/mL
In vivo
  circulating half-life: 15 days
[2]
  serum concentration considered potentially toxic: above 200 ng/mL
